{"source": "patent US6468973B1", "about": "“Method in the treatment of schizophrenia” (priority 1998, dated 2002)", "test_system": "patient with a severe form of schizophrenia", "assay": "Case study: treatment of a patient with a severe form of schizophrenia with a GnRH-analogue", "assay_type": "in vivo, human", "protocol": "3. […] The patient had previously been treated with various dopamine receptor antagonists without any major improvement.\nThe GnRH-analogue triptorelin is available in a pharmaceutical preparation (Decapeptyl® Depot). In the use of this preparation, an injection is administered containing triptorelin embonate in a dose corresponding to 3.75 mg triptorelin. Injections with this dose are given intramuscularly. They should be repeated every fourth week from the first injection.\nA detailed case study of the treatment of a patient with a severe form of schizophrenia is disclosed in the following, as supporting evidence of the effect of the method.\nThey had previously by other psychiatrists been given traditional treatment, for several years, without any major improvement in the symptoms of schizophrenia.\nThe situation when the patient came to the clinic was that they had sickness pension since more than twenty years. Their contacts with other persons were highly restraint. […] The clinical diagnosis was that they suffered from a very serious form of schizophrenia. They had no signs of any other mental illness or personality disorder. Thus, it was a clearly defined case of schizophrenia.\nCertain symptoms of androgenic hyperactivity such as a male pattern baldness and frequent sexual delusions were also found at the initial examination.\nAn endocrinological investigation was performed, based upon their symptoms of androgenic hyperactivity. This disclosed a low blood concentration of free testosterone. Since the patient had symptoms of androgenic hyperactivity this laboratory finding could, however, not be a symptom of a low androgenic activity. Instead, the interpretation of this laboratory finding was that it was a sign of a compensatory reduction in the synthesis and release of testosterone occurring as a consequence of an increased androgenic activity in the brain.\nDuring long periods of time the patient had been treated with the drugs which presently are considered to have the best effect against schizophrenia.\nIn order to overcome the sexual delusions, treatment with the long-acting GnRH-analogue triptorelin (Decapeptyl® Depot) was given every fourth week as deep intramuscular depot injections with a dose corresponding to 1.75 mg triptorelin in each injection. Initially, they were also treated with flutamid in order to prevent a transient increase in androgenic activity.\nIt is obvious that the dramatic improvement of the patient was caused by the treatment with a GnRH-analogue.", "key": {"[1]": {"details": "same patient and regimen, after another three months (five months in total)"}}, "data": [{"smiles": "CC(C)C[C@H](NC(=O)[C@@H](Cc1c[nH]c2ccccc12)NC(=O)[C@H](Cc1ccc(O)cc1)NC(=O)[C@H](CO)NC(=O)[C@H](Cc1c[nH]c2ccccc12)NC(=O)[C@H](Cc1c[nH]cn1)NC(=O)[C@@H]1CCC(=O)N1)C(=O)N[C@@H](CCCNC(=N)N)C(=O)N1CCC[C@H]1C(=O)NCC(N)=O", "note": "[triptorelin]", "values": [{"measurement": "clinical improvement of schizophrenia", "setting": "one patient, very severe schizophrenia, after six months of treatment, previously dopamine receptor antagonists without major improvement", "result": "dramatically improved"}, {"measurement": "patient's condition (schizophrenia symptoms)", "setting": "person, Decapeptyl Depot i.m. every fourth week, dose corresponding to 1.75 mg triptorelin, initially with flutamid, after two months treatment", "result": "began to feel better"}, {"measurement": "delusions", "setting": "[1]", "result": "markedly reduced"}, {"measurement": "hallucinations", "setting": "[1]", "result": "all hallucinations had disappeared"}, {"measurement": "patient's condition (schizophrenia symptoms)", "setting": "[1]", "result": "dramatically better"}]}]}
